The nature of series [1]: DPPH radical-scavenging method (anti-oxidant potential). The class given is biochemical. The note with it: for RD(.05 mg): amount of compound needed to deplete .05 mg of DPPH: calculated from slope; for Slope (anti-oxidant potential): mg DPPH remaining vs mg compound, linear regression, absorbance at 517 nm. The source says:
The ability of a component to serve as an anti-oxidant is readily tested by a variety of methods known in the art. These analytical methods measure the radical-scavenging activity of anti-oxidants against free radicals, such as the 1,1-diphenyl-2-picrylhydrazyl (DPPH) radical. […] This absorbance disappears as the DPPH is consumed upon reduction by an antiradical compound. The disappearance of this so-called absorbance band can be followed by spectroscopic methods allowing quantitative measurements of the compound's anti-oxidant ability.
Stock solutions of 100 micromolar DPPH were prepared using 3.9 milligrams (mg) of DPPH dissolved in 100 milliliters (ml) of solution using spectroscopic grade methanol (MeOH). 3.5 ml of the DPPH solution was combined with 0.5 ml of test solutions of various concentrations of the anti-oxidant compounds. The commercial anti-oxidants, which are not water soluble, were dissolved in MeOH while their functionalized fullerene derivatives were dissolved in distilled water. The test mixture was immediately placed in a spectrometer which measured the absorbance of the mixture at 517 nm at various intervals over periods of 6 to 8 hours. Typically 4 or more samples of the anti-oxidants at various concentrations were tested. The concentrations, expressed in milligrams per milliliter (mg/ml), were selected so that some of the samples would consume more than 50% of the DPPH and others would not.
The percent of DPPH remaining at a given time interval was calculated using the following equation:
[formula] ACt is the absorbance value to the compound/DPPH solution at time t, ADPPHi is the initial value of the DPPH control blank at time t=0, and ADPPHt′ is the absorbance value of the control blank DPPH at time t=t′. The term (ADPPHt−ADPPHt′) in the above equation is the absorbance correction factor for DPPH radical decay as measured in the control blank.
The % DPPHram was recorded for each of the four concentrations at two different reaction times (30 minutes and 300 minutes). The % DPPHram was converted to milligrams (mg) of DPPH remaining and plotted as a function of milligrams (mg) of compound for each of the two reaction times. Linear regressions were calculated for each of the data sets according to the following formula: CDPPH=mt·Cc+CDPPHo
CDPPH is the mass of DPPH remaining at time t=30 minutes and time t=300 minutes, Co is the mass of the compound in the cuvette, CDPPHo is the initial concentration of the DPPH in the cuvette, and mt is the slope determined by the linear regression. The slope was used as a parameter to estimate the anti-oxidant potential of the compound. […] FIGS. 30-34 illustrate the slope (anti-oxidant potential) of commercial anti-oxidants and their functionalized fullerenol derivatives (indicated with FF in the legends).
The slope for each compound was tabulated and the amount (mg) of compound needed to deplete 0.05 mg of DPPH was calculated (see Table 1).

A short description of series [2]: UV absorbing ability (UV/Vis absorbance of solutions). The class given is physicochemical. The note with it: 0.5 mg/ml, avobenzone in acetone, functionalized fullerene in distilled water. The procedure:
The ability of a component to absorb UV light is readily tested using spectroscopic instruments, such as a UV/Vis spectrophotometer.
5.0 milligrams (mg) of avobenzone, a UV light absorbing substance widely used in sunscreens, was dissolved in 10 milliliters (ml) of reagent grade acetone. […] UV absorbance (A) of the resulting solutions was measured at 290 nm, 320 nm, and 400 nm.

Turning to `CCCCC/C=C\C/C=C\C/C=C\C/C=C\CCCC(=O)O` [Arachidonic Acid, arachidonic acid, reference compound], the “RD(.05 mg): amount of compound needed to deplete .05 mg of DPPH” value (“RD(.05 mg): amount of compound needed” for short) is recorded as 250.00 mg in series [1] (30 minutes reaction time) and 45.45 mg in series [1] (300 minutes reaction time). Further, the “Slope (anti-oxidant potential)” value was -0.0002 mg/mg in series [1] (30 minutes reaction time) and -0.0011 mg/mg in series [1] (300 minutes reaction time).
Take `COC1=C(OC)C(=O)C(C/C=C(\C)CC/C=C(\C)CC/C=C(\C)CC/C=C(\C)CC/C=C(\C)CC/C=C(\C)CC/C=C(\C)CC/C=C(\C)CC/C=C(\C)CCC=C(C)C)=C(C)C1=O` [Coenzyme Q10, coenzyme Q10, reference compound]: in series [1] (30 minutes reaction time), the “RD(.05 mg): amount of compound needed” value is reported as 125.00 mg and the “Slope (anti-oxidant potential)” value is -0.0004 mg/mg. For the same compound, in series [1] (300 minutes reaction time), the “RD(.05 mg): amount of compound needed” value is given as 23.81 mg and the “Slope (anti-oxidant potential)” value is -0.0021 mg/mg.
On the same counts, the results for `CC/C=C\C/C=C\C/C=C\CCCCCCCC(=O)O` [Linolenic Acid, α-linolenic acid, reference compound] are 250.00 mg, -0.0002 mg/mg, 45.45 mg and -0.0011 mg/mg.
Regarding `COc1ccc(C(=O)CC(=O)c2ccc(C(C)(C)C)cc2)cc1` [Avobenzone, avobenzone], in series [2] (290 nm), the “Absorbance (A) 290 nm” value was 0.297. Further, the “Absorbance (A) 320 nm” value in series [2] (320 nm) is 0.521. Besides, the “Absorbance (A) 400 nm” value in series [2] (400 nm) worked out at 0.376.
As for `CCCCC/C=C\C/C=C\CCCCCCCC(=O)O` [Linoleic Acid, linoleic acid, reference compound], in series [1] (30 minutes reaction time), the “RD(.05 mg): amount of compound needed” value is given as 6250.00 mg and the “Slope (anti-oxidant potential)” value is -0.000008 mg/mg. In series [1] (300 minutes reaction time), the “RD(.05 mg): amount of compound needed” value was 100.00 mg and the “Slope (anti-oxidant potential)” value is -0.0005 mg/mg.

The record behind these values is patent US9085463B2, “Water-soluble functionalized fullerenes” (Marelle, LLC, priority 2011, dated 2015).
